Experiments:
Assay in all cases: 3' UTR reporter interaction score (median-centred robust z-score of log2 firefly/Renilla activity); higher = less repression of the 3' UTR reporter
Conditions in all cases: HEK293T; 48 h
BRCA2 = tested on: BRCA2
Summary of the method: (§1)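 Firefly and Renilla luciferase activities were read 48 h post-transfection in HEK293T cells (10,000/well, 96-well plates). The cells had received 100 ng firefly luc2P reporter bearing the gene's 3' UTR, 20 ng Renilla pRL-TK control and 2.5 pmol miRNA mimic via DharmaFECT Duo. The interaction score, where more negative means interaction, is a per-plate robust z-score (median, median absolute deviation) of the log firefly/Renilla ratio, median-centred per miRNA and averaged over at least two independent screens.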

EZH2 = tested on: EZH2
Summary of the method: as §1

FBXW7 = tested on: FBXW7
Summary of the method: as §1

HRAS = tested on: HRAS
Summary of the method: as §1

MYB = tested on: MYB
Summary of the method: as §1

MYCN = tested on: MYCN
Summary of the method: as §1

MYC = tested on: MYC
Summary of the method: as §1

MYT1L = tested on: MYT1L
Summary of the method: as §1

NOTCH1 = tested on: NOTCH1
Summary of the method: as §1

PHF6 = tested on: PHF6
Summary of the method: as §1

PHOX2B = tested on: PHOX2B
Summary of the method: as §1

RB1 = tested on: RB1
Summary of the method: as §1

TP53 = tested on: TP53
Summary of the method: as §1

ZEB2 = tested on: ZEB2
Summary of the method: as §1

Sequence | 3' UTR reporter interaction score (BRCA2) | 3' UTR reporter interaction score (EZH2) | 3' UTR reporter interaction score (FBXW7) | 3' UTR reporter interaction score (HRAS) | 3' UTR reporter interaction score (MYB) | 3' UTR reporter interaction score (MYCN) | 3' UTR reporter interaction score (MYC) | 3' UTR reporter interaction score (MYT1L) | 3' UTR reporter interaction score (NOTCH1) | 3' UTR reporter interaction score (PHF6) | 3' UTR reporter interaction score (PHOX2B) | 3' UTR reporter interaction score (RB1) | 3' UTR reporter interaction score (TP53) | 3' UTR reporter interaction score (ZEB2)
UUAUGGUUUGCCUGGGACUGAG | 0.104 | 0.163 | -3.46 | 0.369 | 1.44 | -0.255 | 0.675 | 1.06 | -0.409 | -0.769 | 0.156 | -0.796 | -1.16 | -0.72
UGUGUCACUCGAUGACCACUGU | 0.0202 | 1.04 | 1.58 | 1.13 | -0.364 | 0.203 | 0.947 | -1.73 | -1.12 | -0.745 | 0.976 | -0.876 | 0.4 | 0.295
AGUGUGGCUUUCUUAGAGC | -3.13 | -0.421 | 1.11 | 0.377 | 0.805 | 0.47 | -0.501 | -0.23 | -0.152 | -0.715 | 1.11 | -0.335 | -0.0434 | 0.748
CAACGGAAUCCCAAAAGCAGCU | -0.135 | 0.561 | -0.229 | 0.275 | -0.0583 | -0.12 | 0.282 | -1.32 | 0.629 | -0.143 | -0.397 | 0.747 | -0.924 | 0.375
AUGACCUAUGAAUUGACAGAC | -0.0675 | 0.321 | -0.658 | 0.425 | 1.61 | 1.35 | 1.39 | 0.231 | -0.0227 | -2.93 | -1.53 | -3 | 0.0613 | -6.08
GACACGGGCGACAGCUGCGGCCC | -0.257 | -0.294 | -0.302 | 0.13 | 0.262 | -0.202 | -0.271 | -0.281 | -0.641 | 1.16 | -0.471 | 1.37 | 0.243 | 0.917
UGAGGUAGUAGGUUGUAUAGUU | 0.954 | -3.3 | 0.0535 | 0.245 | 0.376 | -4.02 | -1.94 | -0.405 | -0.241 | 2.23 | -1.51 | -1.04 | 0.766 | -0.683
AGCUGGUGUUGUGAAUC | -0.493 | -0.157 | -0.398 | -0.334 | 0.129 | 0.275 | 0.179 | 0.16 | 0.152 | -0.508 | 0.54 | -0.243 | 0.136 | 0.43
CACACACUGCAAUUACUUUUGC | 1.28 | 0.0197 | -1.17 | 0.537 | -0.132 | 0.192 | 0.144 | 0.0502 | -1.12 | -0.242 | 0.662 | -0.83 | 0.266 | -2.35
AGAGGCUGGCCGUGAUGAAUUC | -0.104 | 0.351 | -0.536 | -0.467 | 0.549 | 0.202 | -1.78 | -1.95 | 0.488 | 2.37 | 1.42 | -0.425 | -1.7 | 0.958
UUUCCAUAGGUGAUGAGUCAC | -0.419 | -3.48 | -0.836 | 0.654 | 1.55 | 1.24 | 0.823 | -0.218 | -0.326 | -0.367 | -0.505 | 0.93 | -0.699 | -0.252
AUCCUUGCUAUCUGGGUGCUA | -0.448 | -0.755 | 0.895 | -3.26 | 0.799 | 1.2 | 0.118 | 0.363 | 0.113 | -1.61 | -0.723 | -2.46 | 0.763 | -0.105
UCACAGUGAACCGGUCUCUUUC | 0.111 | 0.78 | -1.67 | -0.688 | -1.23 | 0.302 | 0.45 | 0.655 | -0.749 | -3.58 | 0.244 | -0.537 | 0.241 | -2.39
ACUUCACCUGGUCCACUAGCCGU | -0.412 | -0.456 | -2.1 | -0.736 | 0.743 | 0.0552 | -0.039 | 1.42 | 0.897 | 0.576 | -0.0718 | 1.16 | -0.237 | 0.694
ACUAGACUGAAGCUCCUUGAGG | 0.363 | 0.526 | -1.12 | 0.196 | 0.78 | 0.903 | 0.201 | 0.327 | -0.733 | -0.216 | -2.05 | 1.2 | 0.442 | -0.765
GUGUGUGGAAAUGCUUCUGC | -2.78 | 1.67 | -0.236 | 0.713 | 1.87 | 1.7 | -0.259 | -1.13 | -0.133 | 1.54 | -1.13 | 1.07 | -0.707 | -1.28
AAAGACAUAGGAUAGAGUCACCUC | -0.417 | -0.299 | 1.01 | -0.101 | 0.438 | -0.0475 | -0.142 | -1.82 | -1.33 | -0.548 | 0.476 | -0.442 | 0.557 | 0.2
CAAAGAGGAAGGUCCCAUUAC | -0.346 | -0.46 | 0.456 | 0.586 | 0.328 | 0.419 | -0.255 | -0.262 | -0.106 | -0.348 | -0.488 | -0.878 | -1.21 | 1.21
AUCGCUGCGGUUGCGAGCGCUGU | -2.3 | -1.15 | 0.301 | -1.73 | 1.13 | 0.0647 | 0.0173 | 1.61 | -0.324 | 2.14 | 2.38 | -0.265 | -0.536 | 0.885
